This is an account of results in patent US12082918B2, “Preparation for magnetic resonance diagnostics for oncological diseases, comprising deuterated 2-amino-2-methylpropionic acid and/or 2-(N-methylamino)-2-methylpropionic acid, and diagnostic method using said preparation” (SOLVEX LIMITED LIABILITY COMPANY, priority 2017, dated 2024).

The test system of data set [1] is carcinoma of the breast 4T1. The experiment in a line: 2H MRI visualisation of 4T1 breast carcinoma in mice in vivo. On the set-up: species or system mice Balb/c. The protocol:
(§1) In the examples below, the MRI scanner Bruker BioSpec BC70/30 USR with the constant field of 7.05 T, equipped with a surface transmitting-and-receiving coil with a diameter of 3 cm and a scan depth of ca. 1 cm was used.
(§2) To register deuterium image the FLASH (Fast low angle shot) pulse sequence was used.
(§3) For experiments with the broadband excitation the following settings were used: the excitation frequency was determined by ^2H NMR spectrum and was sfo1≈46.1745 MHz, a rectangular excitation pulse with a width of 1300 Hz and a power of 36 dB, the flip angle FA=30°, the time TR=11.8 MS, echo time TE=4.4 msec, a scan area of 10 cm×10 cm, scan matrix, 50×50, slice thickness 3 cm, bandwidth of 12500 Hz, total scan time 10 minutes (1030 averages).
For experiments with selective excitation the following settings were used: excitation frequency sfo1=46.1745 MHz, a rectangular excitation pulse with a width of 130 Hz and a power of 48 dB, the flip angle FA=30°, the repetition time TR=25 MS, echo time TE=10 MS, a scanning area of 10 cm×10 cm, scan matrix 50×50, slice thickness 3 cm, bandwidth of 25,000 Hz, total scan time 10 minutes.
In this example, experiments were conducted on mice Balb/c inoculated with carcinoma of the breast 4T1 (injection of 5×10^5 cells/60 μl under the left front paw for 10 days before experiment) and in healthy Balb/c mice.
An animal no. 1-5 weighing 20 g was injected intraperitoneally with a solution of 20 mg of 2-amino-2-(CD3)-3,3,3-D3-propionic acid in 0.5 ml of a saline solution. An animal no. […] weighing 20 g was injected intraperitoneally with a solution of 10 mg (mouse no. 4) or 5 mg (mouse no. 5) 2-amino-2-(CD3)-3,3,3-D3-propionic acid in 0.25 ml of a saline solution. After injection, the animal was kept in a separate cage for a specified time (no. 1 with the tumor and no. 2 without the tumor: 40 min; no. 3 with the tumor: 115 min; no. 4 with the tumor: 20 and 360 min; no. 5 and no. 6 with the tumor: 30 min). To register the MR images and spectra an animal was immobilized with isoflurane. The surface transmitting-and-receiving coil was fixed on the body of the mouse on the dorsal side sequentially in two positions (thoracic, kidneys). The FIGS. 3-7 show ^2H MR images obtained with the use of the broadband excitation of the deuterium nuclei.

The subject of the next data set is C6 glioma. The data set is described as follows: 2H MRI visualisation of glioma C6 in rats in vivo. On the set-up: species or system Wistar rats. The following applies: 4 hours after 150 mg i.p. The procedure:
as §1, §2, §3
In this example, experiments were conducted on Wistar rats inoculated with C6 glioma and in healthy Wistar rats.
An animal with the weight of 210 g was injected intraperitoneally a solution of 150 mg of 2-amino-2-(CD3)-3,3,3-D3-propionic acid in 1.5 ml of a saline solution. After injection, the animal was kept in a separate cage with free access to food and water. To register the MR images and spectra an animal was immobilized with isoflurane. The surface transmitting-and-receiving coil was fixed over the head of the rat.

In data set [2] the test system is carcinoma of the breast 4T1. The experiment in a line: 2H MRI visualisation of 4T1 breast carcinoma in mice in vivo. Set-up: species or system mice Balb/c. This is another data set of the same source.

Molecules are shown by their SMILES.

`[2H]C([2H])([2H])C(N)(C(=O)O)C([2H])([2H])[2H]` [2-amino-2-(CD3)-3,3,3-D3-propionic acid]: the “localization of the deuterium signal (2H MRI)” value in data set [1] (control mouse no. 2 without the tumor, 40 min after 20 mg i.p.) is “localized in the region corresponding to the liver”; in data set [1] (mouse no. 1 with tumor, 40 min after 20 mg i.p.) it was “localized in the region corresponding to the tumor”; in data set [1] (mouse no. 3 with tumor, 115 min after 20 mg i.p.), “localized in the region corresponding to the tumor and in the area corresponding to the liver”; with C6 glioma (rat with C6 glioma) it was “localized in the region corresponding to the tumor”; in the data set on C6 glioma (rats without tumors) it was “does not show a clear localization”; in data set [2] (mouse no. 4 with tumor, 20 min after 20 mg i.p.), “localized in the region corresponding to the most recently developed and actively growing parts of the tumor, and also in the area corresponding to the liver”. The “localization of the deuterium signal (2H MRI)” value in data set [2] (mouse no. 4 with tumor, 360 min after 20 mg i.p.) was “localized in the region corresponding to the most recently developed and actively growing parts of the tumor”; in data set [2] (mouse no. 5 with tumor, 30 min after 10 mg i.p.), “localized in the region corresponding to individual parts of the tumor”; in data set [2] (mouse no. 6 with tumor, 30 min after 5 mg i.p.) it was “localized in the region corresponding to individual parts of the tumor”. The “allowable time range between administration and detection of deuterium” value in data set [1] (mice with 4T1 tumor, 20 mg i.p., FIGS. 3, 5, 7 and 8) lay in the range of 20 to 360 min. Further, in data set [1] (mouse no. 1, 40 min after 20 mg i.p., broadband excitation), the “signal/noise ratio in the kidneys” value is on record as “approximately 25”. The “signal/noise ratio in the region of the tumor” value in data set [1] (mouse no. 1 with tumor, 40 min after 20 mg i.p., broadband excitation) is recorded as “approximately 6”; in data set [1] (mouse no. 1 with tumor, 40 min after 20 mg i.p., selective excitation) it was “about 4”. For the same compound, the “visibility of excised tumor on deuterium MR image” value in data set [1] (tumors excised from mouse no. 3, 150 min after injection of 20 mg) is given as “clearly visible on deuterium MR image”.
